System: A498 complex spheroids with HUVEC/MSC, growth
Assay: Anticancer human tumor A498 cell line growth inhibition [AhR];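 note: seven day exposure starting three days after spheroid seeding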;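 for viability, T/C: luminescence signal used as a surrogate for viable cells; luminescence viability scaled so 100% equals DMSO vehicle wells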
Details: for viability, T/C: stronger effect = lower value
Procedure, shortened: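 Complex tumor spheroids co-cultured with HUVEC and human MSC stroma; AhR antagonists tested in combination with standard-of-care and investigational agents. Top concentration at or near clinical Cmax (else 10 microM), half-log dilutions; growth expressed as percent test/control.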

[1] = curve of first compound, second compound 0.1 µM
[2] = curve of first compound, second compound 0.316 µM
[3] = curve of first compound, second compound 1 µM
[4] = curve of first compound, second compound 3.16 µM
[5] = curve of first compound, second compound 10 µM
[6] = second compound 0.1 µM, first compound 0.000949 µM
[7] = second compound 0.1 µM, first compound 0.003 µM
[8] = second compound 0.1 µM, first compound 0.00949 µM
[9] = second compound 0.1 µM, first compound 0.03 µM
[10] = second compound 0.1 µM, first compound 0.0949 µM
[11] = second compound 0.1 µM, first compound 0.3 µM
[12] = second compound 0.316 µM, first compound 0.000949 µM
[13] = second compound 0.316 µM, first compound 0.003 µM
[14] = second compound 0.316 µM, first compound 0.00949 µM
[15] = second compound 0.316 µM, first compound 0.03 µM
[16] = second compound 0.316 µM, first compound 0.0949 µM
[17] = second compound 0.316 µM, first compound 0.3 µM
[18] = second compound 1 µM, first compound 0.000949 µM
[19] = second compound 1 µM, first compound 0.003 µM
[20] = second compound 1 µM, first compound 0.00949 µM
[21] = second compound 1 µM, first compound 0.03 µM
[22] = second compound 1 µM, first compound 0.0949 µM
[23] = second compound 1 µM, first compound 0.3 µM
[24] = second compound 3.16 µM, first compound 0.000949 µM
[25] = second compound 3.16 µM, first compound 0.003 µM
[26] = second compound 3.16 µM, first compound 0.00949 µM
[27] = second compound 3.16 µM, first compound 0.03 µM
[28] = second compound 3.16 µM, first compound 0.0949 µM
[29] = second compound 3.16 µM, first compound 0.3 µM
[30] = second compound 10 µM, first compound 0.000949 µM
[31] = second compound 10 µM, first compound 0.003 µM
[32] = second compound 10 µM, first compound 0.00949 µM
[33] = second compound 10 µM, first compound 0.03 µM
[34] = second compound 10 µM, first compound 0.0949 µM
[35] = second compound 10 µM, first compound 0.3 µM

SMILES | IC50 [1] | IC50 [2] | IC50 [3] | IC50 [4] | IC50 [5] | viability, T/C [6] | viability, T/C [7] | viability, T/C [8] | viability, T/C [9] | viability, T/C [10] | viability, T/C [11] | viability, T/C [12] | viability, T/C [13] | viability, T/C [14] | viability, T/C [15] | viability, T/C [16] | viability, T/C [17] | viability, T/C [18] | viability, T/C [19] | viability, T/C [20] | other results
CC(C)CC(NC(=O)C(Cc1ccccc1)NC(=O)c1cnccn1)B(O)O (stereo unspecified) + Cc1ccccc1N=Nc1ccc(NC(=O)c2ccnn2C)c(C)c1 | 5.25 nM | 5.75 nM | 5.19 nM | 5.16 nM | 5.11 nM | 91.9% | 85.5% | 12.4% | 2.56% | 1.06% | 0.48% | 99.1% | 102% | 11% | 3.7% | 3.08% | 1.05% | 81.7% | 86.3% | 12.4% | viability, T/C [21]: 3.99%; viability, T/C [22]: 2.9%; viability, T/C [23]: 0.61%; viability, T/C [24]: 80.9%; viability, T/C [25]: 86.7%; viability, T/C [26]: 11.8%; viability, T/C [27]: 4.56%; viability, T/C [28]: 3.32%; viability, T/C [29]: 0.84%; viability, T/C [30]: 84.8%; viability, T/C [31]: 87.2%; viability, T/C [32]: 8.3%; viability, T/C [33]: 4.14%; viability, T/C [34]: 1.64%; viability, T/C [35]: 1.69%
CC(CO)NC(=O)c1cc(-c2ccc(Cl)cc2)nn(-c2cnn(C)c2)c1=O (stereo unspecified) | – | – | – | – | – | – | – | – | – | – | – | – | – | – | – | – | – | – | – | – | viability, T/C (compound 0.1 µM): 92.3% [middle of 20 runs]; viability, T/C (compound 0.316 µM): 90.5% [middle of 21 runs]; viability, T/C (compound 1 µM): 85.9% [middle of 21 runs]; viability, T/C (compound 3.16 µM): 83.2% [middle of 19 runs]; viability, T/C (compound 10 µM): 68.4% [middle of 19 runs]; IC50 (compound alone, run of 08/08/2022): > 10000 nM
CC(C)CC(NC(=O)C(Cc1ccccc1)NC(=O)c1cnccn1)B(O)O (stereo unspecified) + Cc1cncc(-c2nc(NCCc3c[nH]c4ccccc34)c3ncn(C(C)C)c3n2)c1 | 4.75 nM | 5.08 nM | 4.69 nM | 3.34 nM | < 0.949 nM | 91% | 79.8% | 5.02% | 1.12% | 0.37% | 0.34% | 95.5% | 88.7% | 4.18% | 1.1% | 0.36% | 0.3% | 88.2% | 79.1% | 4.22% | viability, T/C [21]: 0.83%; viability, T/C [22]: 0.33%; viability, T/C [23]: 0.36%; viability, T/C [24]: 62.5%; viability, T/C [25]: 54.9%; viability, T/C [26]: 3.44%; viability, T/C [27]: 0.63%; viability, T/C [28]: 0.22%; viability, T/C [29]: 0.3%; viability, T/C [30]: 5.04%; viability, T/C [31]: 3.31%; viability, T/C [32]: 0.4%; viability, T/C [33]: 0.14%; viability, T/C [34]: 0.15%; viability, T/C [35]: 0.22%
CCc1c2c(nc3ccc(O)cc13)-c1cc3c(c(=O)n1C2)COC(=O)[C@]3(O)CC + CC(CO)NC(=O)c1cc(-c2ccc(Cl)cc2)nn(-c2cnn(C)c2)c1=O | 19.2 nM | 16 nM | 19 nM | 16 nM | 4.73 nM | 77.1% | 77.9% | 61.7% | 42.4% | 37.3% | 33.1% | 70.8% | 70.9% | 57.8% | 40.7% | 36.4% | 36.7% | 69.8% | 72.3% | 62.6% | viability, T/C [21]: 41.6%; viability, T/C [22]: 35.5%; viability, T/C [23]: 34.1%; viability, T/C [24]: 58.8%; viability, T/C [25]: 63.1%; viability, T/C [26]: 58.3%; viability, T/C [27]: 39.8%; viability, T/C [28]: 30.5%; viability, T/C [29]: 33.8%; viability, T/C [30]: 51.2%; viability, T/C [31]: 53.3%; viability, T/C [32]: 46.6%; viability, T/C [33]: 36.4%; viability, T/C [34]: 29.3%; viability, T/C [35]: 31.8%

— PubChem BioAssay AID1919007 (Molecular Pharmacology Branch, DTP, NCI, 2023)
